This is an account of results in publication PMC5531494, “Target specificity, in vivo pharmacokinetics, and efficacy of the putative STAT3 inhibitor LY5 in osteosarcoma, Ewing's sarcoma, and rhabdomyosarcoma” (PLoS ONE, 2017).

pIC50: −log10 of the molar value.

Assay [1] deals with RH30 cells. Put plainly: Alamar Blue cell viability assay. The class given is cell-based. Conditions: Homo sapiens; RH30, 96 hours. As to the method:
(§1) Sarcoma cell lines were seeded in 24-well plates in 1X RPMI medium containing 10% fetal bovine serum. Cells were then incubated with DMSO (control) or concentrations of LY5 ranging from 10 nM to 10 μM for 96 hrs. At the end of the incubation period, Alamar Blue (Invitrogen, Carlsbad, CA) was added to cells at one-tenth the volume of the cell culture medium and incubated for 3 hrs at 37° C in the dark. Fluorescence was then measured at an excitation/emissions wavelength of 570/590 nm and emission wavelength of 590 nm.
(§2) Fig 2 Biologic activity of LY5 in sarcoma cell lines. Dose response curves for LY5: RMS cell lines (RH30, RD, JR-1), ES cell lines (ES-3, ES-6, ES-7, ES-8), and an OS cell line (OS-17) were treated with LY5 (concentrations ranging from 10 nM to 10 μM) for 96 hours. Cell viability was determined using Alamar Blue staining. IC50 values are indicated for each cell line. Analyses were performed in triplicate and data are plotted as means ± standard deviation.
On the technique in general: The colour change of resazurin is a common sign of viable cells or microbes.

Assay [2] relates to ES-8 cells. Kind of assay: Alamar Blue cell viability assay. The class given is cell-based. The note with it: Homo sapiens, ES8; ES-8, 96 hours. On the procedure: as §1, §2
Assay [3] deals with ES-3 cells. Put plainly: Alamar Blue cell viability assay. The class given is cell-based. The note with it: Homo sapiens; ES-3, 96 hours. On the procedure:
as §1, §2

The subject of assay [4] is ES-6 cells. Put plainly: Alamar Blue cell viability assay. The format is cell-based. Conditions: Homo sapiens; ES-6, 96 hours. As to the method:
as §1, §2

Assay [5] deals with ES-7 cells. Put plainly: Alamar Blue cell viability assay. The format is cell-based. The note with it: Homo sapiens, ES7; ES-7, 96 hours. On the procedure:
as §1, §2

Assay [6] deals with OS-17 cells. Put plainly: Alamar Blue cell viability assay. The format is cell-based. Conditions: Homo sapiens; OS-17, 96 hours. On the procedure:
as §1, §2

The test system of assay [7] is JR-1 cells. Put plainly: Alamar Blue cell viability assay. The format is cell-based. Conditions: Homo sapiens; JR-1, 96 hours. On the procedure:
as §1, §2

Assay [8] has as its system RD cells. Kind of assay: Alamar Blue cell viability assay. Conditions: Homo sapiens, 96 hours. The format is cell-based. As to the method: as §1, §2
In assay [9] the target is T1, STAT3 (Homo sapiens, UniProt P40763). Kind of assay: Western blot of pSTAT3 in MG63.3 cells. The format is cell-based. Also on record: endogenous in cells; host or cells: MG63.3. As to the method:
Murine K7M2 and human MG63.3 OS cells were treated with increasing concentrations of LY5 for 2 hrs or 7 hrs. Western blotting was performed for pSTAT3 and STAT3 as indicated above to confirm inhibition of STAT3 phosphorylation in the cell lines prior to initiation of the PuMA assay. In addition, a sulforhodamine B colorimetric assay was performed to assess the cytotoxicity of LY5 in K7M2 and MG63.3 cells as previously described.
(§3) MG63.3 and K7M2 cell lines were exposed to increasing concentrations of LY5 to determine the IC50 (A). Western blot analysis was performed to determine the dose and duration of LY5 exposure required to inhibit STAT3 phosphorylation (B-C). Serial imaging of fluorescently labeled MG63.3 and K7M2 cells was performed in ex vivo LY5 treated lung sections (D). Metastatic burden was quantified by evaluation of the percent tumor burden (mean normalized fluorescent area). Data are reported as the mean ± standard deviation. In MG 63.3 experiment, p < 0.0001 Kruskal-Wallis test, p < 0.05 10 μM vs control at days 7, 14, and 21, 10 μM vs 1 μM at days 7, 14, and 21, 50 μM vs control at days 7, 14, and 21, and 50 μM vs 10 μM at days 7, 14, and 21 post-test Dunn. In K7M2 experiment, p < 0.0001 Kruskal-Wallis test, p < 0.05 10 μM vs control at days 14 and 21, 10 μM vs 0.1 μM at days 14 and 21, and 10 μM vs 1 μM at days 14 and 21, post-test Dunn.
(In general: Immunoblotting shows a protein as a band on a membrane.)

Assay [10] addresses T1, STAT3. Put plainly: IL-6 / OSM induced STAT3 phosphorylation in SJSA cells, Western blot. The class given is cell-based. Further details: endogenous in cells. Conditions: LY5 two hours then 50 ng/mL cytokine 30 minutes. On the procedure: Cell lysis, protein isolation and immunoblotting were performed as described previously. Twenty micrograms of protein were resolved using 4–12% Bis-Tris polyacrylamide gels. Gels were transferred to PVDF membranes and subjected to blocking and incubation with primary and secondary antibodies. The primary antibodies used in this study included: phospho-STAT3 (Tyr705, Cell Signaling, Boston, MA and Abcam, Cambridge, MA), total STAT3 (Cell Signaling and Abcam), phospho-STAT1 (Cell Signaling), total STAT1 (Cell Signaling), phospho-STAT2 (Cell Signaling), phospho-STAT4 (Cell Signaling), phospho-STAT6 (Cell Signaling), and GAPDH (Cell Signaling). Protein bands were detected using Western Lightning ® Plus Enhanced Chemiluminescence substrate (Perkin Elmer, Waltham, MA) and HyBlot CL ® Autoradiography film (Denville Scientific, Holliston, MA). The cytokines used in this study included: interferon gamma (IFN-γ, Cell Signaling), interferon alpha (IFN-α, Cell Signaling), interleukin-4 (IL-4, Cell Signaling), interleukin-6 (IL-6, Cell Signaling), and oncostatin M (OSM, Cell Signaling).
Fig 1 LY5 inhibits pSTAT3 in sarcoma cell lines. (A) The tumor cell lines RH30, EW8, and RD were treated with increasing concentrations of LY5 for 30 minutes. Cell lysates were collected for Western blotting of p-STAT3, total STAT3, and GAPDH. GAPDH was used as loading control. […]

In assay [11] the test system is K7M2 cells. Kind of assay: Ex vivo pulmonary metastasis assay (PuMA). The class given is cell-based, murine. The note with it: K7M2, 10 μM LY5 only. As to the method: GFP-positive K7M2 and MG63.3 cells (3 x 10^5 MG63.3; 5 x 10^5 K7M2) were administered via tail vein injection into mice. Following humane euthanasia, the lungs were insufflated with a culture medium/agarose mixture to a constant hydrostatic pressure of 20 cm H2O and prepared for ex vivo culture as previously described. Lung sections were cultured in complete media containing LY5 (0, 0.1, 1, 10 or 50 μM) on sterile Gelfoam using 6 lung sections per treatment condition. Media was changed every 48 hrs and lung slices were imaged with a fluorescent microscope every 7 days for a total of 21 days.
as §3, with “In K7M2 experiment, p < 0.0001 Kruskal-Wallis test, p < 0.05 10 μM vs control at days 14 and 21, 10 μM vs 0.1 μM at days 14 and 21, and 10 μM vs 1 μM at days 14 and 21, post-test Dunn.” left out

T1 sequence (P40763 whole entry): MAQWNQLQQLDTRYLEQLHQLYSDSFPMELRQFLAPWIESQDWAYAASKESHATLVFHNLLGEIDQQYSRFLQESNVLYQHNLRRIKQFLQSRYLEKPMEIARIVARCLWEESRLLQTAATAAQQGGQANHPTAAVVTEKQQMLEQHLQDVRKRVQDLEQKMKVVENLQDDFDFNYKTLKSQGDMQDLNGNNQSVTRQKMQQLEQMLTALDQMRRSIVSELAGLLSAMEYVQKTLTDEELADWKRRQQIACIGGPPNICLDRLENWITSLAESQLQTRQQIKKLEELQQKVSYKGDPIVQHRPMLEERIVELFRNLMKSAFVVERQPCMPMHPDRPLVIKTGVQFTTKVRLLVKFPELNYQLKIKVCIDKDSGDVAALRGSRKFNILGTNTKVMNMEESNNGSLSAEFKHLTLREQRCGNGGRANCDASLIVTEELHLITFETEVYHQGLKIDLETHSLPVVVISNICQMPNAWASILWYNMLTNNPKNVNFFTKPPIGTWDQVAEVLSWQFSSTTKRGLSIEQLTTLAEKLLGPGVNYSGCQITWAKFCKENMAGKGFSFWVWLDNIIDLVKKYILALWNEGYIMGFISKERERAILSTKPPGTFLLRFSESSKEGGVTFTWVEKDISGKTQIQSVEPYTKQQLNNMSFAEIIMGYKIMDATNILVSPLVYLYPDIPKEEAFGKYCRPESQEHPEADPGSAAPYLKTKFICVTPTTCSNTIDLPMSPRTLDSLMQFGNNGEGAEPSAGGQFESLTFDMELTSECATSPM

Regarding `NS(=O)(=O)c1cccc2c1C(=O)C=C(Nc1cccnc1)C2=O` [LY5, 5,8-dioxo-6-(pyridin-3-ylamino)-5,8-dihydronaphthalene-1-sulfonamide], the pIC50 in [1] is 6.37; in [2] it was 5.70; in assay [3], 5.47; in [4] it was 5.30; in assay [5] it was 5.67; in assay [6], 5.84. In addition, the results for the pIC50 in [7] and in [8] were 6.57 and 6.69, respectively. Further, the “exposure time for effective inhibition of STAT3 phosphorylation” value in assay [9] (MG 63.3, 1 μM LY5) was 0.5 h. In [9] (MG63.3, 2 hrs treatment), the “concentration that decreased STAT3 phosphorylation” value is 1 µM. Besides, the “IL-6 and OSM induced STAT3 phosphorylation” value in assay [10] was “effectively blocked”. In addition, the “tumor burden in PuMA” value in assay [11] is “reduction”.

For orientation: pIC50 means the negative decadic logarithm of the IC50, by convention in mol/L. A high value points to a small IC50.
